Laboratory results published in patent publication US4511577A, “Derivatives of benzoic acid” (Media Research s.r.l., priority 1983, dated 1985).

Legend:
[1] = system: carrageenin induced oedema in rat paw; assay: carrageenin induced oedema in rat paw (antiinflammatory activity); assay type: in vivo; conditions: 75 mg/kg per os; for AREA Δ % (paw volume): control 243.3; for paw average volume, 30' / paw average volume, 1h / paw average volume, 2h / paw average volume, 3h / paw average volume, 6h / paw average volume, Basal: 5 animals
Experimental: The antiinflammatory activity of MR-[…] in comparison with acetylsalicylic acid was determined by the test of carrageenin induced oedema in rat paw, according to the method of Winter, […], Ness. (Proc. Soc. Exp. Biol. Med., 111, 544-547, 1962). […] The paw volume was determined using an apparatus supplied by U. Basile Ltd.

[2] = tail-flick test (analgesic activity); assay type: in vivo; conditions: 75 mg/kg os; for AREA Δ % (tail-flick): control 170.45
Experimental: The analgesic activity was determined according to the tail-flick test, employing an apparatus supplied by Socrel Ltd., Milano, Italy.

gastric mucosa = assay: gastro-injuring action on the gastric mucosa; assay type: in vivo, Male Sprague-Dawley rats; conditions: oral, equimolecular doses, rats fasted 48 hours
Experimental: The action on the gastric mucosa of MR-Y134 in comparison with equimolecular doses of ASA was determined according to the method described by Pisanti and Volterra (I1 Farmaco, vol. 25, (2), 105).
The products were administered orally.
Male Sprague-Dawley rats were used fastened for 48 hours with water ad libitum.
The control group was administered with the solvent only (1% carboxymethylcellulose).

[3] = plasmatic kinetics in rat after oral administration
Experimental: The plasmatic kynetic of acetylsalicylic acid in rat was compared after oral administration of equimolecular doses of MR-Y134 and […] (466 mg/kg MR-Y134 and 300 mg/kg ASA respectively).
The compounds were both administered in the form of 2% gum arabic suspension to rats fastened for 12 hours. Each animal was administered with 1.0 ml of solution.
The rats were killed at the following times: 1, 2, 4, 8, 12 hours after the administration of the compounds.
The blood sample was drawn in heparin.

SMILES | % inhibition versus control (area, paw oedema) [1] | AREA Δ % (paw volume) [1] | Percent variation of paw volume with respect to 0 time, 30' [1] | paw average volume, 30' [1] | Percent variation of paw volume with respect to 0 time, 1h [1] | paw average volume, 1h [1] | Percent variation of paw volume with respect to 0 time, 2h [1] | paw average volume, 2h [1] | Percent variation of paw volume with respect to 0 time, 3h [1] | paw average volume, 3h [1] | Percent variation of paw volume with respect to 0 time, 6h [1] | paw average volume, 6h [1] | paw average volume, Basal [1] | % inhibition versus control (area, tail-flick) [2] | AREA Δ % (tail-flick) [2] | Percent variation of reaction time with respect to 0 time, 1h [2] | Reaction time, 1h [2] | Percent variation of reaction time with respect to 0 time, 3h [2] | Reaction time, 3h [2] | Percent variation of reaction time with respect to 0 time, 6h [2] | other results
O=C(Oc1ccccc1C(=O)O)c1cccs1 [MR-Y134, 2-(2-thenoyloxy)-benzoic acid] | 47.51% | 127.69 Δ % | 8.03% | 1.71 mL | 14.96% | 1.82 mL | 14.18% | 1.8 mL | 20.46% | 1.9 mL | 76.48% | 2.79 mL | 1.58 mL | 50.18% | 84.91 Δ % | 9.36% | 8.9 s | 18.94% | 7.96 s | 15.68% | antiinflammatory activity compared with ASA ([1]; equal amounts by weight): good antiinflammatory activity, substantially equal to the one of ASA; Reaction time, 6h [2]: 8.28 s; Reaction time, Basal [2]: 9.82 s; analgesic activity compared with ASA ([2]; equal amounts by weight): three times higher than the one of ASA; gastro-injuring activity compared with ASA (gastric mucosa): scarce gastro-injuring activity, substantially lower than the one of ASA; height of plasma peak compared with sodium salicylate ([3]; rat, in vivo, po): substantially higher; persistence in the bloodstream ([3]; rat, in vivo, po): higher and more prolonged persistence in the bloodstream; time of plasma peak ([3]; rat, in vivo, po): third hour
CC(=O)Oc1ccccc1C(=O)O [ASA, acetylsalicylic acid] | 53.41% | 113.35 Δ % | 9.71% | 1.69 mL | 13.57% | 1.75 mL | 16.30% | 1.79 mL | 17.71% | 1.81 mL | 62.13% | 2.49 mL | 1.55 mL | 16.61% | 142.13 Δ % | 23.01% | 7.16 s | 26.66% | 6.82 s | 27.31% | Reaction time, 6h [2]: 6.76 s; Reaction time, Basal [2]: 9.30 s
O=C([O-])c1ccccc1O.[Na+] [SODIUM SALICYLATE, sodium salicylate] |  |  |  |  |  |  |  |  |  |  |  |  |  |  |  |  |  |  |  |  | time of plasma peak ([3]; oral, equimolecular doses): second hour; concentration at 1 h ([3]; rat, in vivo, po, 300 mg/kg): 362 µg/mL; concentration at 2 h ([3]; rat, in vivo, po, 300 mg/kg): 534 µg/mL; concentration at 4 h ([3]; rat, in vivo, po, 300 mg/kg): 470 µg/mL; concentration at 8 h ([3]; rat, in vivo, po, 300 mg/kg): 456 µg/mL; concentration at 12 h ([3]; rat, in vivo, po, 300 mg/kg): 325 µg/mL
